Here are results for 1 molecule from patent publication US6528685B2 (Teva Pharmaceutical Industries, Ltd., priority 1994, dated 2003).

Counter-ions that a name gives are not always drawn. A value given as a limit tells only on which side of the number the result lay.

The subject of data set [1] is mice. In words: Neurotoxicity in mice, rotorod ataxia test. Conditions: mice i.p.; rotorod ataxia test. On the procedure: (§1) Neurotoxicity of the claimed agents was also assessed in mice (i.p. administration) by the rotorod ataxia test and/or in rats (p.o. administration) by positional sense test and gait stance test. […] The term quantitating the neurotoxicity is the medial neurological toxic dose (TD50), was determined in the above tests.

For data set [2], the system named is mice. Conditions: mice i.p.
Data set [3] has as its system rats. To be noted: rats p.o.
Data set [4] has as its system rats. The experiment in a line: Maximal electroshock (MES) model, rats. To be noted: rats, oral (p.o.) administration; median effective dose.
Data set [5] concerns rats. In words: Neurotoxicity in rats, positional sense test and gait stance test. Conditions: rats p.o.; positional sense test and gait stance test. How it is done: as §1
The test system of a further data set is mongolian gerbils. The experiment in a line: Global brain ischemia in gerbils. It counts as in vivo, mongolian gerbil. To be noted: 3 injections, fraction of hippocampi protected from ischemia, 14 days post-ischemia. On the procedure: Male mongolian gerbils, aged 2.5-5 months, housed 4-8 in a cage, were supplied freely with food and water and maintained at 24° C. with a 12 hour day/night cycle. […] Each artery was clamped for 5 minutes with aneurysm clips to produce global brain ischemia. The anesthesia was discontinued upon clamping. After 5 minutes the clamps were removed and the wound closed with skin clips.
For treatment, the test compound or vehicle were injected intra-peritoneally (ip) in a volume of 50 microliters of solvent per 10 g body weight. The first injection was given two minutes after clamp removal, and thereafter daily for the next 2 post-operative days (total of 3 injections).
Seven groups each of 4-8 animals were compared:
V. Ischemia—Test compound treated, one sub-group per concentration tested,
VI. Ischemia and pentobarbital (40 mg/kg) as positive control).
Analysis of neuronal damage was performed 14 days post-ischemia by counting pyramidal neurons throughout the CA1 layer of the anterior hippocampus in […] thick (paraffin) coronal brain sections stained with hematoxylin and erosin.
Percent Protection values represent the fraction of hippocampi protected from ischemia in a group of animals treated with the stated dose of compound.

Data set [6] concerns mice. The experiment in a line: Maximal electroshock (MES) model, mice. To be noted: mice, intraperitoneal (i.p.) administration.
Data set [7] deals with Mechanically dissociated Neonatal Rat Cerebellum. In words: Reversal of NMDA induced cell death, neonatal rat cerebellum cultures. It counts as cell-based. Conditions: for SURVIVING CELL IN CULTURE: relative to control (100%); for PERCENT PROTECTION: cell survival minus NMDA effect (30%); for EFFECTIVE PROTECTION: percent protection x 100/70. How it is done: (§2) The cerebellum was aseptically dissociated from 6 or 7-day old rat pups and placed in a 15 ml sterile plastic conical tube containing 3 ml of Dulbecco's modified Eagle's medium (DMEM) with a high glucose concentration ([…]) and 2 mM (v/v) L-glutamine and an antibiotic antimitotic mixture. The cerebella were then dissociated after 20-25 passages through a sterile 13 gauge, 10 cm long stainless steel needle attached to a 5 ml syringe with an inserted 45 micrometer pore nylon sieve. The dissociated cells were centrifuged at 200 g for 5 minutes. The supernatant was discarded and the cells resuspended in medium enriched with 15% (v/v) heat inactivated fetal calf serum. Cell viability was determined by the tryptan blue exclusion test.
Cells were plated at a density of 200/mm^2 on poly-L-lysine coated surfaces. Poly-L-lysine coated glass coverslips were prepared at least one hour in advance of plating by immersing sterile coverslips in sterile distilled water solution containing 15 microgram/ml poly-L-lysine, and washing in sterile water just prior to use. The plated cells were covered with enriched medium and incubated at 37° C. in an atmosphere of 5% CO2 in air and 97% humidity. After three days in culture, the media was replaced with media containing the desired test compound. Each test compound was tested in duplicate. Toxic-dose response was determined for each compound.
Four groups were run in each set of experiments;
I. Control, consisting of enriched media alone,
II. N-methyl-D-aspartate (NMDA, 1 mM for 3 hours) as the cytotoxic challenge,
III. Test compound plus NMDA, and
IV. Positive control, spermine(0.01 micromoles) plus NMDA.
Nerve cell survival was evaluated by phase contrast microscopy and tryptan blue staining after 24 hours.
Surviving cells in culture are measured relative to control (100%) as described above. Percent protection is the Cell Survival for the test compound minus the NMDA effect. Thus, maximal protection is 100% minus 30% NMDA effect i.e. 70%. The Effective Protection was calculated as the percent of the Percent Protection (X) divided by the maximal protection value (e.g. X×100/70).

Data set [8] shares this test system. The experiment in a line: Enhancement of cell survival, neonatal rat cerebellum cultures without NMDA. In kind it is cell-based. Conditions: 0.005 μM; 24 hours after addition, fourth day; percentage of control cells; no NMDA. How it is done: as §2, with “The supernatant was discarded and the cells resuspended in medium enriched with 15% (v/v) heat inactivated fetal calf serum.” left out
Cells were plated at a density of 200/mm^2 on poly-L-lysine coated surfaces. Poly-L-lysine coated glass coverslips were prepared at least one hour in advance of plating by immersing sterile coverslips in sterile distilled water solution containing 15 microgram/ml poly-L-lysine, and washing in sterile water just prior to use. […] After three days in culture, the media was replaced with media containing the desired test compound. Each test compound was tested in duplicate. Toxic-dose response was determined for each compound.
Cell cultures were grown as described above but in the absence of NMDA and after 3 days a dose of test compound was added. Cell survival was monitored as described above.

Regarding `NC(=O)CN[C@H]1CCc2ccccc21` [Compound 2, (S)-N-(2-Acetamido)-1-aminoindan.HCl], the “MICE TD50” value in the data set on mice [1] came out at 137 mg/kg. The “MICE scMet ED50 PI” value in the data set on mice [2] is reported as >150 mg/kg. The “RATS scMet ED50 PI” value with rats [3] is >250 mg/kg. Further, the “RATS MES 50” value with rats [4] is listed as 21 mg/kg. In the data set with rats [5], the “RATS TD50” value is on record as >500 mg/kg. Further, the “PERCENT PROTECTION” value was 0% in the data set with mongolian gerbils (0.1 mg/kg ip); 50.0% with mongolian gerbils (1.0 mg/kg ip); 37.5% with mongolian gerbils (10.0 mg/kg ip); 26% in data set [7] (0.005 μM + NMDA); 21% in data set [7] (0.010 μM + NMDA); 3% in data set [7] (0.100 μM + NMDA). Besides, the “MICE MES ED50” value against mice [6] is 39 mg/kg. For the same molecule, the “SURVIVING CELL IN CULTURE” value in data set [7] (0.005 μM + NMDA 1 mM 3 hours) was determined as 56%; in data set [7] (0.010 μM + NMDA 1 mM 3 hours), 51%; in [7] (0.100 μM + NMDA 1 mM 3 hours) it was 33%. The results for the “EFFECTIVE PROTECTION” value in data set [7] (0.005 μM + NMDA), in data set [7] (0.010 μM + NMDA) and in data set [7] (0.100 μM + NMDA) were 37%, 30% and 4%, respectively. In data set [8], the “% ENHANCED SURVIVAL” value came to 140%.
